Where two headings read alike, the source gives them in different places.
Test system: rat
Assay: Randall-Selitto test in rats (Carrageenin-induced oedema, model for inflammatory pain), with isobolographic analysis of fixed ratio combinations
Type: in vivo
Details: for ED50: Rattus norvegicus, confidence interval in brackets; for timepoint of peak effect: substance applied alone, A i.v., NSAIDs i.p.
Protocol: The weight ratios of the components (a) and (b) that will lead to a supra-additive effect (synergistic effect) of the inventive pharmaceutical composition may be determined via the test of Randall and Selitto as described in Arch. Int. Pharmacodyn., 1957, 111: 409 to 419, which is a model for inflammatory pain. The respective part of the literature is hereby incorporated by reference and forms part of the present disclosure.
By means of injection of 0.1 ml of Carrageenin-suspension ventrally into a hind paw of a rat an oedema is induced, on which pain is generated 4 hours later by continuously increasing pressure with a stamp (2 mm tip diameter). The antinociceptive and antihyperalgesic activity of the tested substance is determined at different points in time after administration of the substance. The measured value to be determined and at the same time also the end point of the pain test is the pressure at which the vocalisation reaction of the rat occurs. The percentage maximum possible effect (% MPE) is calculated. The maximum pressure of the stamp is 250 g. The group size is n=10.
The interactions studies presented herein were performed using equieffective doses of the two components, calculated from the ratio of the respective ED50 values of the components if administered alone.
The application route was intravenous (i.v.) for (1R,2R)-3-(3-Dimethylamino-1-ethyl-2-methyl-propyl)-phenol (A) and intraperitoneal (i.p.) for the NSAIDs Diclofenac-sodium and Ibuprofen. […] According to their respective timepoint of peak effect, (1R,2R)-3-(3-Dimethylamino-1-ethyl-2-methyl-propyl)-phenol was applied 15 min and Diclofenac-Sodium and Ibuprofen 30 min before timepoint of measurement of the interaction-experiments (i. e. Diclofenac-Sodium or Ibuprofen were applied 15 min before (1R,2R)-3-(3-Dimethylamino-1-ethyl-2-methyl-propyl)-phenol, respectively). Thus, the time point of ED50 calculation of the combination corresponds to the timepoint of the peak effect of the respective compound.
The application route was intravenous (i.v.) for (1R,2R)-3-(3-Dimethylamino-1-ethyl-2-methyl-propyl)-phenol (A) and intraperitoneal (i.p.) for the NSAIDs (+)-Naproxen, Ketoprofen and Metamizol-Sodium. […] According to their respective timepoint of peak effect, (1R,2R)-3-(3-Dimethylamino-1-ethyl-2-methyl-propyl)-phenol was applied 15 min and (+)-Naproxen, Ketoprofen and Metamizol-Sodium 45 min before timepoint of measurement of the interaction-experiments (i. e. (+)-Naproxen, Ketoprofen and Metamizol-Sodium were applied 30 min before (1R,2R)-3-(3-Dimethylamino-1-ethyl-2-methyl-propyl)-phenol, respectively). Thus, the time point of ED50 calculation of the combination corresponds to the timepoint of the peak effect of the respective compound.

[1] = ip, 0.5 h, study A, i.p., 30 min p. appl. (peak effect), read-out: ED50 of the NSAID applied alone
[2] = ip, 0.75 h, study B, i.p., 45 min p. appl. (peak effect), read-out: ED50 of the NSAID applied alone

| SMILES | ED50 (iv, 0.25 h, read-out: ED50 of A applied alone, study A, i.v., 15 min p. appl. (peak effect)) | ED50 (iv, 0.25 h, read-out: ED50 of A applied alone, study B, i.v., 15 min p. appl. (peak effect)) | ED50 [1] | analgesic effect of the NSAID applied alone (i.p.) | timepoint of peak effect | ED50 [2] |
| --- | --- | --- | --- | --- | --- | --- |
| CC[C@@H](c1cccc(O)c1)[C@@H](C)CN(C)C [A, (1R,2R)-3-(3-Dimethylamino-1-ethyl-2-methyl-propyl)-phenol] | 1.88 mg/kg | 1.88 mg/kg |  |  |  |  |
| O=C(O)Cc1ccccc1Nc1c(Cl)cccc1Cl [Diclofenac-Sodium] |  |  | 145 mg/kg | dose-dependent analgesic effects | 30 min p. appl. |  |
| CC(C)Cc1ccc(C(C)C(=O)O)cc1 (centres unmarked) [Ibuprofen, 2-(4-Isobutylphenyl)propanoic acid] |  |  | 139 mg/kg | dose-dependent analgesic effects | 30 min p. appl. |  |
| CC(C(=O)O)c1cccc(C(=O)c2ccccc2)c1 (centres unmarked) [Ketoprofen, 2-(3-Benzoylphenyl)propanoic acid] |  |  |  | dose-dependent analgesic effects | 45 min p. appl. | 224 mg/kg |
| CC1C(N(C)CS(=O)(=O)[O-])C(=O)N(c2ccccc2)N1C.[Na+] (centres unmarked) [Metamizol-Sodium, Sodium ((1,5-dimethyl-3-oxo-2-phenylpyrazolidin-4-yl)(methyl)amino)methanesulfonate] |  |  |  | dose-dependent analgesic effects | 45 min p. appl. | 88.1 mg/kg |

From patent US20160045459A1, “Pharmaceutical Combination” (Gruenenthal GmbH, priority 2006, published 2016)
